This is an account of results in patent publication US20100247538A1, “IL-18 and Protein Kinase R Inhibition for the Treatment of COPD” (Yale University, priority 2007, published 2010).

Assay [1] relates to murine lung. Briefly: Alveolar remodeling / emphysema (mean chord length, lung morphometry). Particulars: for tissue / alveolar remodeling: control or CS-exposed animals.
For assay [2], the system named is murine lung. Briefly: BAL inflammation (BAL cell recovery) after PAMP administration in mice breathing room air or exposed to cigarette smoke. Conditions: for BAL inflammation: interaction with cigarette smoke (CS-exposed vs non-CS animals): CS exposure 2 weeks before and during dosing; for number of cells recovered per ml of BAL fluid: control (non-CS) animals, dose series. It is filed as in vivo. On the procedure:
During the first week they received a half cigarette, twice a day, to allow for acclimation. During the remainder of the exposure they received three cigarettes per day (one cigarette per session/three sessions per day).
(§1) CS exposure was continued during this interval.
Mice were sacrificed using intraperitoneal ketamine/xylazine injection and the trachea was cannulated and perfused with two 0.9 ml aliquots of cold saline. The cellular contents and BAL fluid were separated by centrifugation and the BAL fluid was stored in aliquots at −80° C.

For assay [3], the system named is murine lung. Briefly: TUNEL evaluation of lung cell apoptosis. It is filed as in vivo, mice. On the procedure: End labeling of exposed 3′-OH ends of DNA fragments in paraffin-embedded tissue was undertaken with the TUNEL in situ cell death detection kit AP (Roche Diagnostics) using the instructions provided by the manufacturer. Staining specificity was assessed by comparing the signal that was seen when terminal transferase was included and excluded from the reaction. After staining, a minimum of 20 fields of alveoli were randomly chosen, and 500 nuclei were counted per lung. The labeled cells were expressed as a percentage of total nuclei.
as §1
End labeling of exposed 3′-OH ends of DNA fragments in paraffin embedded tissue was undertaken with the TUNEL in situ cell death detection kit AP (Roche Diagnostics, Indianapolis, Ind.) using the instructions provided by the manufacturer. Staining specificity was assessed by comparing the signal that was seen when terminal transferase was included and excluded from the reaction. After staining, a minimum of 10 fields of alveoli was randomly chosen and 300 nuclei of structural cells were counted per lung. The labeled cells were expressed as a percentage of total nuclei.

The subject of assay [4] is IL-12/23 p40. Briefly: BAL IL-12/IL-23p40 ELISA. Particulars: after second dose. It is filed as in vivo, mice. Here is the method: as §1
(§2) The levels of BAL IL-18 (MBL, Japan), IL-12/IL-23p40 and IFN-γ (R&D Systems) were determined using commercial ELISA kits as per the manufacturer's instructions.
For orientation: ELISA stands for enzyme-linked immunosorbent assay.

Assay [5] relates to IL-18, IL-12/23 p40 and Type I and Type II IFNs. Briefly: Production of IL-18, IL-12/23 p40 and Type I and Type II IFNs in BAL (stated jointly). It is filed as in vivo, mice. Conditions: versus vehicle controls.
The subject of assay [6] is IFN-γ. Briefly: BAL IFN-γ ELISA. It is filed as in vivo, mice. Conditions: for IFN-γ level: after second dose. Here is the method:
as §1, §2

Assay [7] concerns PKR. Briefly: Immunoblot of phospho-PKR in whole lung lysates. The class given is in vivo, mice. Here is the method: as §1
Whole lung lysates were prepared and the total protein content of each was measured using the DC protein assay reagents (Bio-Rad Inc.). Equal amounts of sample proteins were fractionated on 4-15% SDS-PAGE gels under reducing conditions and transferred to polyvinylidene difluoride membranes. The membranes were then incubated in blocking buffer (5% w/v nonfat dry milk in TBS/0.05% Tween) for 1 hour at room temperature. The membranes were then incubated with primary antibodies overnight at 4° C., washed three times in TBS/0.05% Tween and incubated for 2 h at room temperature with appropriate secondary antibodies. Immunoreactive signal was detected using a chemiluminescent procedure (ECL Western blotting detection system; Amersham Life Science) according to the manufacturer's instructions.

The test system of assay [8] is IL-18. Kind of assay: BAL IL-18 ELISA. It is filed as in vivo, mice. On the procedure: Mice were euthanized, the trachea was isolated by blunt dissection, and tubing was secured in the airway. Three volumes of 0.6 ml of PBS were then instilled and gently aspirated and pooled. Each BAL fluid sample was centrifuged, and the supernatants were stored in −70° C. until used. Lung lysates were also prepared. The levels of IL-18 were determined using a commercial ELISA kit (R&D Systems) as per the manufacturer's instructions.
as §1, §2

“Also recorded” adds a separate entry of the source.

For the compound `CCNCc1nc2c(N)nc3ccccc3c2n1CC(C)(C)O` [GDQ, gardiquimod], in assay [1], the “tissue / alveolar remodeling” value is “no effect; also recorded: did not have similar effects”. Moreover, the “BAL inflammation: interaction with cigarette smoke (CS-exposed vs non-CS animals)” value in assay [2] is “not significantl”. For the same compound, the BAL inflammation result in assay [2] (control animals, 5 μg doses) is on record as “no effect”.
As for `CC(C)Cn1cnc2c(N)nc3ccccc3c21` [IMQ, imiquimod], the “tissue / alveolar remodeling” value in assay [1] is “did not have similar effects”.
Take lipopoly-saccharide [LPS]: the “tissue / alveolar remodeling” value in assay [1] is given as “no tissue remodeling was observed; also recorded: did not have similar effects”. Moreover, in assay [2], the “BAL inflammation: interaction with cigarette smoke (CS-exposed vs non-CS animals)” value is recorded as “not a significant difference” and the “number of cells recovered per ml of BAL fluid” value is listed as “dose dependent”.
Regarding poly(I:C), in assay [1] (4 doses in CS-exposed mice), the “morphometrically determined alveolar chord length” value is reported as “significant increases”. Further, the “increase in alveolar size” value in assay [1] (4 doses in RA-exposed mice) is “did not achieve statistical significance”. In addition, the “dose at which CS interaction on alveolar/airway remodeling could be appreciated” value in assay [1] (CS-exposed mice) is no less than 15 µg. Also, the mean chord length entry was “about 70 microns” in assay [1] (IL-18Rα−/− and IFN-γ−/− animals exposed to CS); “about 70 microns” in assay [1] (PKR (null) animals exposed to CS); “about 85 microns” in assay [1] (PKR+/+ animals exposed to CS); “about 65 microns” in assay [1] (PKR+/+ animals, no CS); roughly 62 microns in assay [1] (PKR−/− animals, no CS); “about 90 microns” in assay [1] (administered and exposed to CS, controls about 55 microns). The mean chord length entry in assay [1] (wild-type, IL-18Rα−/− and IFN-γ−/− animals, no CS) was “about 60 microns”. Further, the “BAL inflammation: interaction with cigarette smoke (CS-exposed vs non-CS animals)” value in assay [2] is recorded as “significantly exacerbated; also recorded: synergistic”. Also, the “dose giving significant interaction with CS on inflammation” value in assay [2] (CS-exposed mice) is no less than 15 µg. Also, the “number of cells recovered per ml of BAL fluid” value in assay [2] is reported as “dose dependent”. Also, the TUNEL score entry in assay [3] (IL-18Rα+/+, IFN-γ+/+, PKR+/+ animals, CS) was “about 12%”; in assay [3] (IL-18Rα+/+, IFN-γ+/+, PKR+/+ animals, room air) it was “about 8%”; in assay [3] (IL-18Rα−/−, IFN-γ−/− and PKR−/− animals, CS), “about 9%”; in assay [3] (combined with CS), “about 17”; in assay [3] (given alone (no CS)), “about 8”. In addition, the TUNEL value entry in assay [3] (IL-18Rα−/−, IFN-γ−/− and PKR−/− animals, room air) is “about 6.5%”. Besides, the IL-12/23 level entry in assay [4] (CS animals, relative to non-CS) is “about twice that”; in assay [4] (non-CS animals), “about 3000 pg/ml”. For the same compound, in assay [5], the “stimulation of IL-18, IL-12/23 p40 and Type I and Type II IFNs” value is recorded as “potent stimulator”. Besides, the results for the IFN-γ level entry in assay [6] (CS animals) and in assay [6] (control animals) were “about 90 pg/ml” and “about 10 pg/ml”, respectively. Further, the IFN-γ expression entry in assay [6] (IL-18Rα−/− animals, CS) is listed as “about 35 pg/ml”; in assay [6] (wild-type animals, CS), “about 110 pg/ml”; in assay [6] (wild-type animals, no CS), “about 35 pg/ml”. The “dose at which enhanced PKR activation was observed” value in assay [7] (CS-exposed mice) is no less than 15 µg/mL. For the same compound, in assay [7] (wild-type animals, given alone), the phospho-PKR expression result is “modestly up-regulated”. Besides, the “phospho-PKR expression / PKR activation” value in assay [7] (wild-type animals, with CS exposure) is on record as “further increase; also recorded: greatly enhanced”. Besides, the IL-18 level entry in assay [8] (CS animals, second dose) is “about 100 pg/ml”; in assay [8] (both CS and non-CS animals, by week 4), 90 to 100 pg/mL; in assay [8] (non-CS animals, second dose) it was “about 20 pg/ml”.
